Test results as given in US10821115B2, “Compounds that inhibit Mcl-1 protein” (priority 2017, dated 2020).
Read-outs that look alike come from different tables or passages of the source.

Key:
[1] = system: human multiple myeloma cell line, OPM-2; assay: Cell viability assay (OPM-2 10 FBS), CellTiter-Glo; format: cell-based
In short: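 Cells were seeded at 3000 cells/well in RPMI 1640 with 10% FBS and exposed to serially diluted compounds for 16 h at 37 °C, 5% CO2.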

[2] = biological target: recombinant human Mcl-1 (residues 171-327) / Bim interaction (Homo sapiens (Human), UniProt Q07820); assay: biochemical; format: binding; conditions: 0.1 nM Mcl-1(171-327), 0.05 nM biotin-Bim (51-76); read-out: Mcl-1 HTRF IC50
[3] = Homo sapiens, OPM-2, 16 h, read-out: OPM-2 10% FBS IC50 IP, OPM-2 cells, 10% FBS, 16 h incubation
[4] = read-out: OPM-2 10% FBS IC50 IP, OPM-2 cells, 10% FBS, 16 h incubation

recombinant human Mcl-1 (residues 171-327) / Bim interaction, sequence (Q07820 171-327): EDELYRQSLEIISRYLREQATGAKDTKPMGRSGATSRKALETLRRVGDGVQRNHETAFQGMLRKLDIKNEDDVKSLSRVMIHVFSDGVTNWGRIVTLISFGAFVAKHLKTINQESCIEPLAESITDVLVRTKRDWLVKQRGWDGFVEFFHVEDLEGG

## CO[C@@]1(CN2CCC23COC3)/C=C/C[C@H](C)[C@@H](C)S(=O)(=O)NC(=O)c2ccc3c(c2)N(C[C@@H]2CC[C@H]21)C[C@@]1(CCCc2cc(Cl)ccc21)CO3 [Example 208, (1S,3′R,6′R,7′S,8′E,11′S,12′R)-6-chloro-7′-methoxy-11′,12′-dimethyl-7′-(6-oxa-1-azaspiro[3.3]hept-1-ylmethyl)-3,4-dihydro-2H,15′H-spiro[naphthalene-1,22′-[20]oxa[13]thia[1,14]diazatetracyclo [14.7.2.0~3,6~.0~19,24~]pentacosa[8,16,18,24]tetraen]-15′-one 13′,13′-dioxide]
[1]; [3]
  IC50: 368 nM
[2]
  IC50: 0.099 nM

## CO[C@@]1(CN2CCc3ncsc3C2)/C=C/C[C@H](C)[C@@H](C)S(=O)(=O)NC(=O)c2ccc3c(c2)N(C[C@@H]2CC[C@H]21)C[C@@]1(CCCc2cc(Cl)ccc21)CO3 [Example 209]
[1]; [3]
  IC50: 437 nM
[2]
  IC50: 0.552 nM

## CO[C@@]1(CN2CCN3CCN(C)C[C@@H]3C2)/C=C/C[C@H](C)[C@@H](C)S(=O)(=O)NC(=O)c2ccc3c(c2)N(C[C@@H]2CC[C@H]21)C[C@@]1(CCCc2cc(Cl)ccc21)CO3 [Example 210]
[1]; [4]
  IC50: 185 nM
[2]
  IC50: 0.138 nM

## CO[C@@]1(CN2CCc3cncnc3C2)/C=C/C[C@H](C)[C@@H](C)S(=O)(=O)NC(=O)c2ccc3c(c2)N(C[C@@H]2CC[C@H]21)C[C@@]1(CCCc2cc(Cl)ccc21)CO3 [Example 211]
[1]; [3]
  IC50: 156 nM
[2]
  IC50: 0.147 nM

## CON(C)C[C@]1(OC)/C=C/C[C@H](C)[C@@H](C)S(=O)(=O)NC(=O)c2ccc3c(c2)N(C[C@@H]2CC[C@H]21)C[C@@]1(CCCc2cc(Cl)ccc21)CO3 [Example 212, (1S,3′R,6′R,7′S,8′E,11′S,12′R)-6-chloro-7′-methoxy-7′-((methoxy(methyl)amino)methyl)-11′,12′-dimethyl-3,4-dihydro-2H,15′H-spiro[naphthalene-1,22′-[20]oxa[13]thia[1,14]diazatetracyclo [14.7.2.0~3,6~.0~19,24~]pentacosa[8,16,18,24]tetraen]-15′-one 13′,13′-dioxide]
[1]; [3]
  IC50: 307 nM
[2]
  IC50: 0.122 nM

## CO[C@]1(CN2CCc3ncncc3C2)/C=C/C[C@H](C)[C@@H](C)S(=O)(=O)NC(=O)c2ccc3c(c2)N(C[C@@H]2CC[C@H]21)C[C@@]1(CCCc2cc(Cl)ccc21)CO3 [Example 222, (1S,3′R,6′R,7′R,8′E,11′S,12′R)-6-chloro-7′-(7,8-dihydropyrido[4,3-d]pyrimidin-6(5H)-ylmethyl)-7′-methoxy-11′,12′-dimethyl-3,4-dihydro-2H,15′H-spiro[naphthalene-1,22′-[20]oxa[13]thia[1,14]diazatetracyclo [14.7.2.0~3,6~.0~19,24~]pentacosa[8,16,18,24]tetraen]-15′-one 13′,13′-dioxide]
[1]; [3]
  IC50: 118 nM
[2]
  IC50: 0.08 nM

## CO[C@@]1(CN2CCc3ncncc3C2)/C=C/C[C@H](C)[C@@H](C)S(=O)(=O)NC(=O)c2ccc3c(c2)N(C[C@@H]2CC[C@H]21)C[C@@]1(CCCc2cc(Cl)ccc21)CO3 [Example 223, (1S,3′R,6′R,7′S,8′E,11′S,12′R)-6-chloro-7′-(7,8-dihydropyrido[4,3-d]pyrimidin-6(5H)-ylmethyl)-7′-methoxy-11′,12′-dimethyl-3,4-dihydro-2H,15′H-spiro[naphthalene-1,22′-[20]oxa[13]thia[1,14]diazatetracyclo [14.7.2.0~3,6~.0~19,24~]pentacosa[8,16,18,24]tetraen]-15′-one 13′,13′-dioxide]
[1]; [3]
  IC50: 258 nM
[2]
  IC50: 0.251 nM

## CO[C@]1(CN2CC3(C2)CS(=O)(=O)C3)/C=C/C[C@H](C)[C@@H](C)S(=O)(=O)NC(=O)c2ccc3c(c2)N(C[C@@H]2CC[C@H]21)C[C@@]1(CCCc2cc(Cl)ccc21)CO3 [Example 224, (1S,3′R,6′R,7′R,8′E,11′S,12′R)-6-chloro-7′-((2,2-dioxido-2-thia-6-azaspiro[3.3]hept-6-yl)methyl)-7′-methoxy-11′,12′-dimethyl-3,4-dihydro-2H,15′H-spiro[naphthalene-1,22′-[20]oxa[13]thia[1,14]diazatetracyclo [14.7.2.0~3,6~.0~19,24~]pentacosa[8,16,18,24]tetraen]-15′-one 13′,13′-dioxide]
[1]; [3]
  IC50: 157 nM
[2]
  IC50: 0.127 nM

## CO[C@]1(CN2CCN3CCN(S(C)(=O)=O)C[C@@H]3C2)/C=C/C[C@H](C)[C@@H](C)S(=O)(=O)NC(=O)c2ccc3c(c2)N(C[C@@H]2CC[C@H]21)C[C@@]1(CCCc2cc(Cl)ccc21)CO3 [Example 227]
[1]; [4]
  IC50: 131 nM
[2]
  IC50: 0.207 nM

## CO[C@@]1(CN2CCN3CCN(C(=O)CCS(=O)(=O)c4ccccc4)C[C@@H]3C2)/C=C/C[C@H](C)[C@@H](C)S(=O)(=O)NC(=O)c2ccc3c(c2)N(C[C@@H]2CC[C@H]21)C[C@@]1(CCCc2cc(Cl)ccc21)CO3 [Example 233]
[1]; [4]
  IC50: 202 nM
[2]
  IC50: 0.516 nM

## C=CC(=O)N1CCN2CCN(C[C@]3(OC)/C=C/C[C@H](C)[C@@H](C)S(=O)(=O)NC(=O)c4ccc5c(c4)N(C[C@@H]4CC[C@H]43)C[C@@]3(CCCc4cc(Cl)ccc43)CO5)C[C@H]2C1 [Example 234]
[1]; [4]
  IC50: 71 nM
[2]
  IC50: 0.163 nM

## COCC(=O)N1CCN(C[C@]2(OC)/C=C/C[C@H](C)[C@@H](C)S(=O)(=O)NC(=O)c3ccc4c(c3)N(C[C@@H]3CC[C@H]32)C[C@@]2(CCCc3cc(Cl)ccc32)CO4)CC1 [Example 246, (1S,3′R,6′R,7′S,8′E,11′S,12′R)-6-chloro-7′-methoxy-7′-((4-(methoxyacetyl)-1-piperazinyl)methyl)-11′,12′-dimethyl-3,4-dihydro-2H,15′H-spiro[naphthalene-1,22′-[20]oxa[13]thia[1,14]diazatetracyclo [14.7.2.0~3,6~.0~19,24~]pentacosa[8,16,18,24]tetraen]-15′-one 13′,13′-dioxide]
[1]; [3]
  IC50: 138 nM
[2]
  IC50: 0.099 nM

## CCN1CCN(C[C@]2(OC)/C=C/C[C@H](C)[C@@H](C)S(=O)(=O)NC(=O)c3ccc4c(c3)N(C[C@@H]3CC[C@H]32)C[C@@]2(CCCc3cc(Cl)ccc32)CO4)CC1 [Example 247, (1S,3′R,6′R,7′S,8′E,11′S,12′R)-6-chloro-7′-((4-ethyl-1-piperazinyl)methyl)-7′-methoxy-11′,12′-dimethyl-3,4-dihydro-2H,15′H-spiro[naphthalene-1,22′-[20]oxa[13]thia[1,14]diazatetracyclo [14.7.2.0~3,6~.0~19,24~]pentacosa[8,16,18,24]tetraen]-15′-one 13′,13′-dioxide]
[1]; [3]
  IC50: 107 nM
[2]
  IC50: 0.129 nM

## CO[C@@]1(CN2CCN(CC(F)(F)F)CC2)/C=C/C[C@H](C)[C@@H](C)S(=O)(=O)NC(=O)c2ccc3c(c2)N(C[C@@H]2CC[C@H]21)C[C@@]1(CCCc2cc(Cl)ccc21)CO3 [Example 248, (1S,3′R,6′R,7′S,8′E,11′S,12′R)-6-chloro-7′-methoxy-11′,12′-dimethyl-7′-((4-(2,2,2-trifluoroethyl)-1-piperazinyl)methyl)-3,4-dihydro-2H,15′H-spiro[naphthalene-1,22′-[20]oxa[13]thia[1,14]diazatetracyclo [14.7.2.0~3,6~.0~19,24~]pentacosa[8,16,18,24]tetraen]-15′-one 13′,13′-dioxide]
[1]; [3]
  IC50: 518 nM
[2]
  IC50: 0.222 nM

## CO[C@@]1(CN2CCN(C(C)=O)CC2)/C=C/C[C@H](C)[C@@H](C)S(=O)(=O)NC(=O)c2ccc3c(c2)N(C[C@@H]2CC[C@H]21)C[C@@]1(CCCc2cc(Cl)ccc21)CO3 [Example 249, (1S,3′R,6′R,7′S,8′E,11′S,12′R)-7′-((4-acetyl-1-piperazinyl)methyl)-6-chloro-7′-methoxy-11′,12′-dimethyl-3,4-dihydro-2H,15′H-spiro[naphthalene-1,22′-[20]oxa[13]thia[1,14]diazatetracyclo [14.7.2.0~3,6~.0~19,24~]pentacosa[8,16,18,24]tetraen]-15′-one 13′,13′-dioxide]
[1]; [3]
  IC50: 114 nM
[2]
  IC50: 0.063 nM

## CO[C@@]1(CN2CCN(C3COC3)CC2)/C=C/C[C@H](C)[C@@H](C)S(=O)(=O)NC(=O)c2ccc3c(c2)N(C[C@@H]2CC[C@H]21)C[C@@]1(CCCc2cc(Cl)ccc21)CO3 [Example 250, (1S,3′R,6′R,7′S,8′E,11′S,12′R)-6-chloro-7′-methoxy-11′,12′-dimethyl-7′-((4-(3-oxetanyl)-1-piperazinyl)methyl)-3,4-dihydro-2H,15′H-spiro[naphthalene-1,22′-[20]oxa[13]thia[1,14]diazatetracyclo [14.7.2.0~3,6~.0~19,24~]pentacosa[8,16,18,24]tetraen]-15′-one 13′,13′-dioxide]
[1]; [3]
  IC50: 47 nM
[2]
  IC50: 0.071 nM

## CO[C@@]1(CN2CCN(c3ccccc3)CC2)/C=C/C[C@H](C)[C@@H](C)S(=O)(=O)NC(=O)c2ccc3c(c2)N(C[C@@H]2CC[C@H]21)C[C@@]1(CCCc2cc(Cl)ccc21)CO3 [Example 251, (1S,3′R,6′R,7′S,8′E,11′S,12′R)-6-chloro-7′-methoxy-11′,12′-dimethyl-7′-((4-phenyl-1-piperazinyl)methyl)-3,4-dihydro-2H,15′H-spiro[naphthalene-1,22′-[20]oxa[13]thia[1,14]diazatetracyclo [14.7.2.0~3,6~.0~19,24~]pentacosa[8,16,18,24]tetraen]-15′-one 13′,13′-dioxide]
[1]; [3]
  IC50: 3870 nM
[2]
  IC50: 2.26 nM

## CO[C@@]1(CN2CCN(c3ccccn3)CC2)/C=C/C[C@H](C)[C@@H](C)S(=O)(=O)NC(=O)c2ccc3c(c2)N(C[C@@H]2CC[C@H]21)C[C@@]1(CCCc2cc(Cl)ccc21)CO3 [Example 252, (1S,3′R,6′R,7′S,8′E,11′S,12′R)-6-chloro-7′-methoxy-11′,12′-dimethyl-7′-((4-(2-pyridinyl)-1-piperazinyl)methyl)-3,4-dihydro-2H,15′H-spiro[naphthalene-1,22′-[20]oxa[13]thia[1,14]diazatetracyclo [14.7.2.0~3,6~.0~19,24~]pentacosa[8,16,18,24]tetraen]-15′-one 13′,13′-dioxide]
[1]; [3]
  IC50: 1800 nM
[2]
  IC50: 1.38 nM
